Activity calls are given as the source filed them. The rule behind the calls is not given here.
Assays:
[1] = Binding affinity to double stranded DNA (unknown origin) assessed as compound concentration required for 30% displacement of thiazole orange from double stranded DNA by fluorescent intercalator displacement assay
Homo sapiens [2] = species: Homo sapiens; assay: Binding affinity to human telomeric 22 G-quadruplex DNA assessed as compound concentration required for 30% displacement of thiazole orange from telomeric 22 G-quadruplex DNA by fluorescent intercalator displacement assay
[3] = Binding affinity to cKit G-quadruplex DNA (unknown origin) assessed as compound concentration required for 30% displacement of thiazole orange from cKit G-quadruplex DNA by fluorescent intercalator displacement assay
[4] = Binding affinity to 5'-dabcyl/3'-fluorescein labeled double stranded DNA (unknown origin) assessed as change in melting temperature at 10 uM by fluorescence assay
Homo sapiens [5] = species: Homo sapiens; assay: Binding affinity to 5'-dabcyl/3'-fluorescein labeled human telomeric sequence G-quadruplex DNA assessed as change in melting temperature at 10 uM by fluorescence assay
[6] = Binding affinity to 5'-dabcyl/3'-fluorescein labeled cKit G-quadruplex DNA (unknown origin) assessed as change in melting temperature at 10 uM by fluorescence assay
[7] = biological target: DNA topoisomerase 2-alpha (Homo sapiens, UniProt P11388); assay: Inhibition of human topoisomerase 2alpha-mediated kinetoplast DNA decatenation after 60 mins by ethidium bromide staining based agarose gel electrophoresis
[8] = Inhibition of Escherichia coli DNA topoisomerase 4 decatenation activity using kinetoplast DNA as substrate after 60 mins by ethidium bromide staining based agarose gel electrophoresis
HeLa [9] = assay: Cytotoxicity against human HeLa cells after 72 hrs by MTT assay; type: functional, cell-based
MCF7 [10] = assay: Cytotoxicity against human MCF7 cells after 72 hrs by MTT assay; type: functional, cell-based; details: MCF7, 72 h
Escherichia coli [11] = assay: Binding affinity to Escherichia coli supercoiled pBR322 DNA assessed as DNA intercalation by measuring DNA unwinding at 100 uM measured after 1 hr by ethidium bromide staining based agarose gel electrophoresis
Escherichia coli [12] = assay: Binding affinity to Escherichia coli supercoiled pBR322 DNA assessed as DNA intercalation by measuring DNA unwinding up to 100 uM measured after 1 hr by ethidium bromide staining based agarose gel electrophoresis
HeLa [13] = assay: Potency index, ratio of ametantrone IC50 to compound IC50 for human HeLa cells; type: functional
MCF7 [14] = assay: Potency index, ratio of ametantrone IC50 to compound IC50 for human MCF7 cells; type: functional
Escherichia coli [15] = assay: Inhibition of Escherichia coli DNA topoisomerase 4 decatenation activity up to 100 uM using kinetoplast DNA as substrate after 60 mins by ethidium bromide staining based agarose gel electrophoresis
Escherichia coli [16] = assay: Binding affinity to Escherichia coli supercoiled pBR322 DNA assessed as DNA intercalation by measuring DNA unwinding at 10 uM measured after 1 hr by ethidium bromide staining based agarose gel electrophoresis
Escherichia coli [17] = assay: Binding affinity to Escherichia coli supercoiled pBR322 DNA assessed as DNA intercalation by measuring DNA unwinding at 0.1 to 10 uM measured after 1 hr by ethidium bromide staining based agarose gel electrophoresis

Sequence of DNA topoisomerase 2-alpha (P11388 whole entry): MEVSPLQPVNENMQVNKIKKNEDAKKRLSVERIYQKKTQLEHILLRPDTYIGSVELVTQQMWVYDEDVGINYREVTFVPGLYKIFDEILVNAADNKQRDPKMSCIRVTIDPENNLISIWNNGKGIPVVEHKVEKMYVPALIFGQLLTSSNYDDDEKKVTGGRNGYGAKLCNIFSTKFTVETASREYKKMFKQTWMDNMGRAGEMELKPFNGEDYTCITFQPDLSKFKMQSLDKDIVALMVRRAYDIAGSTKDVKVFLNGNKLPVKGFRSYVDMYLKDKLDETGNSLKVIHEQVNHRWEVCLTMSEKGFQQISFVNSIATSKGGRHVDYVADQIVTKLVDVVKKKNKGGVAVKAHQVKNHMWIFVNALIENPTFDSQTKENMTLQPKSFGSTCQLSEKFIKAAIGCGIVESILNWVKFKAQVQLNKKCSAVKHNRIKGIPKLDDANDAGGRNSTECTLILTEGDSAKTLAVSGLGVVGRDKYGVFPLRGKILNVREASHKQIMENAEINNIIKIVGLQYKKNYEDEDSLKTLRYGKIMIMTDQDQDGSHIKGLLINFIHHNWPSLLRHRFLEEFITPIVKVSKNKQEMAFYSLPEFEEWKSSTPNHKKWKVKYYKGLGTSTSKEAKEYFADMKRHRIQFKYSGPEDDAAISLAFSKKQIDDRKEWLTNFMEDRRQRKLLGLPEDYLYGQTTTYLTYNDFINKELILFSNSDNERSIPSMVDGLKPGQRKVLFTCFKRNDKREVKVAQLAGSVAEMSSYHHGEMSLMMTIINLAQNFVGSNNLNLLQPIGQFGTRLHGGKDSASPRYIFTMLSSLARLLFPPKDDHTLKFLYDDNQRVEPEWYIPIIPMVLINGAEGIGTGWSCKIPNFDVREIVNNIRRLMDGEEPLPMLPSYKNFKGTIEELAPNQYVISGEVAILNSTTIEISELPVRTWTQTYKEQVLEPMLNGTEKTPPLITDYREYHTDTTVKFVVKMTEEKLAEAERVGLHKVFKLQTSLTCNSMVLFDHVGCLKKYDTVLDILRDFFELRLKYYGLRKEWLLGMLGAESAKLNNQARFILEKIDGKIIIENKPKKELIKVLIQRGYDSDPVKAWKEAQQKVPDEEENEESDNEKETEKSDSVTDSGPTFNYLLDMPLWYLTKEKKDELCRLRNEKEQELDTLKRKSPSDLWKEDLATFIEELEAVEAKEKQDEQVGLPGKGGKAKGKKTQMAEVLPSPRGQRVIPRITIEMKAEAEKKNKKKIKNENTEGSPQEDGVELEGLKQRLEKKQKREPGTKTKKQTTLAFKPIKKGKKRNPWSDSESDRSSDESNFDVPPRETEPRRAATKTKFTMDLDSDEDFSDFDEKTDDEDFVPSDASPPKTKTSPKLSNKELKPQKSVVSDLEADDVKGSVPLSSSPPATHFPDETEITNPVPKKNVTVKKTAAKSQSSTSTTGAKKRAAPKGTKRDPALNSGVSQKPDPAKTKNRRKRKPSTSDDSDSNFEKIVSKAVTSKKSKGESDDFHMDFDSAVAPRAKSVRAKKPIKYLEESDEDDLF

Row | SMILES | Activity [1] [µM] | Activity (Homo sapiens [2]) | Activity [3] [µM] | ΔTm [4] [°C] | ΔTm (Homo sapiens [5]) [°C] | ΔTm [6] [°C] | IC50 [7] [µM] | IC50 [8] [µM] | IC50 (HeLa [9]) [µM] | IC50 (MCF7 [10]) [µM] | further results
1 | CN(C)CCCn1c(=O)c2nc3ccccc3nc2c2ccccc21 | 10.9 | inactive | 3.57 |  |  |  |  |  |  |  | 
2 | O=C(NCCCCN1CCOCC1)c1ccc2nnc3c(c2c1)C(=O)c1ccccc1-3 |  |  |  |  | 4.82 | 4.37 |  |  |  |  | deltaTm [4]: inactive
3 | O=C(NCCCCN1CCCCC1)c1ccc2nnc3c(c2c1)C(=O)c1ccccc1-3 |  |  |  | 0.9 | 6.63 | 5.42 |  |  |  |  | 
4 | CO[C@@H]1[C@@H](OC(N)=O)[C@@H](O)[C@H](Oc2ccc3c(O)c(NC(=O)c4ccc(O)c(CC=C(C)C)c4)c(=O)oc3c2C)OC1(C)C [NOVOBIOCIN] |  |  |  |  |  |  |  | 63.4 |  |  | 
5 | CN(C)CCNC(=O)c1ccc2nnc3c(c2c1)C(=O)c1ccccc1-3 |  |  |  | 1.19 | 5.95 | 6.8 | 13.4 | > 100 | 0.35 | 0.28 | Activity (Escherichia coli [12]): inactive
6 | CN(C)CCCCNC(=O)c1ccc2nnc3c(c2c1)C(=O)c1ccccc1-3 |  |  |  | 2.7 | 9.35 | 12.4 | 7.08 | > 100 | 0.045 | 0.085 | Activity (Escherichia coli [12]): inactive; Ratio IC50 (HeLa [13]): 20; Ratio IC50 (MCF7 [14]): 6
7 | CCN(CC)CCCCNC(=O)c1ccc2nnc3c(c2c1)C(=O)c1ccccc1-3 |  |  |  | 0.53 | 3.77 | 3.01 |  |  |  |  | 
8 | COc1ccc2cc3[n+](cc2c1OC)CCc1cc2c(cc1-3)OCO2 |  | > 10 µM | > 10 | 0.34 | 9.68 | 10.3 |  |  |  |  | 
9 | COc1cccc2c1C(=O)c1c(O)c3c(c(O)c1C2=O)C[C@@](O)(C(=O)CO)C[C@@H]3O[C@H]1C[C@H](N)[C@H](O)[C@H](C)O1 |  |  |  |  |  |  |  |  |  |  | Activity (Escherichia coli [17]): Active
10 | O=C1c2ccccc2C(=O)c2c(NCCNCCO)ccc(NCCNCCO)c21 [AMETANTRONE] |  |  |  |  |  |  |  |  | 0.9 | 0.51 | 
11 | O=C1c2ccccc2-c2nnc3ccccc3c21 |  |  |  |  |  |  | > 100 | > 100 | 0.57 | 0.81 | Activity (Escherichia coli [12]): inactive

The next lines start with results.

Row | Activity [1] [µM] | Activity (Homo sapiens [2]) | Activity [3] [µM] | ΔTm [4] [°C] | ΔTm (Homo sapiens [5]) [°C] | ΔTm [6] [°C] | IC50 [7] [µM] | IC50 [8] [µM] | SMILES | IC50 (HeLa [9]) [µM] | IC50 (MCF7 [10]) [µM] | further results
12 | 4.06 | 2.43 µM | 0.95 | 1.96 | 20.8 | 23.1 | 29.1 | > 100 | CN(C)CCCOc1ccc2ccc3c4c(nnc3c2c1)-c1ccccc1C4=O | 2.81 | 9.79 | Activity (Escherichia coli [11]): Active
13 | 7.81 | 4.75 µM | 1.5 | 0.85 | 16.1 | 19.2 | 52.9 | > 100 | CN(C)CCCOc1ccc2c(ccc3c4c(nnc32)-c2ccccc2C4=O)c1 | 3.05 | 6.75 | Activity (Escherichia coli [11]): Active
14 | 1.36 | 0.52 µM | 0.47 | 5.27 | 25.6 | 28 | 5.44 |  | CN(C)CCOc1ccc2ccc3c4c(nnc3c2c1)-c1ccccc1C4=O | 5.96 | 3.72 | inhibition (Escherichia coli [15]): inactive; Activity (Escherichia coli [16]): Active
15 |  |  |  | 1.95 | 7.91 | 8.5 | 4.88 | > 100 | CN(C)CCCNC(=O)c1ccc2nnc3c(c2c1)C(=O)c1ccccc1-3 | 0.27 | 0.17 | Activity (Escherichia coli [12]): inactive
16 | 16 | inactive | 2.08 |  | 5.69 | 9.18 | > 100 | > 100 | CN(C)CCOc1ccc2c(ccc3c4c(nnc32)-c2ccccc2C4=O)c1 | > 100 | > 100 | deltaTm [4]: inactive; Activity (Escherichia coli [11]): Active
